From ChEMBL document CHEMBL1138818, “Design and synthesis of cyclic urea compounds: a pharmacological study for retinoidal activity” (2004)
pEC50: −log10 of the molar value. Activity calls are given as the source filed them. The calls are words filed in the database; no cut-off is given here.

Tested on: HL-60
Assay: Effective concentration required for induction of differentiation of HL-60 cells into mature granulocytes.
Type: functional
Details: Homo sapiens, read-out: ED50 (the source's name)

pEC50 | Structure (SMILES)
8.08 | CC(C)(C)c1cc(N2CCN(c3ccc(C(=O)O)cc3)C2=O)cc(C(C)(C)C)c1
8.62 | CC1=C(/C=C/C(C)=C/C=C/C(C)=C/C(=O)O)C(C)(C)CCC1 [TRETINOIN]
9.10 | CC1(C)CCC(C)(C)c2cc(NC(=O)c3ccc(C(=O)O)cc3)ccc21 [TAMIBAROTENE]
6.92 | CC1(C)CCC(C)(C)c2cc(N3CCN(c4ccc(C(=O)O)cc4)C3=O)ccc21
6.31 | CC(C)(C)c1cc(N2CCCN(c3ccc(C(=O)O)cc3)C2=O)cc(C(C)(C)C)c1

Tested on: HL-60
Assay: Effective concentration required for induction of differentiation of HL-60 cells into mature granulocytes. IA = No activity at E-6
Type: functional, cell-based
Details: Homo sapiens

Structure (SMILES) | ED50
CC(C)(C)c1ccc(N2CCCN(c3ccc(C(=O)O)cc3)C2=O)cc1 | inactive
CC(C)(C)c1ccc(N2CCN(c3ccc(C(=O)O)cc3)C2=O)cc1 | inactive
CC1(C)CCC(C)(C)c2cc(N3CCCN(c4ccc(C(=O)O)cc4)C3=O)ccc21 | inactive
O=C(O)c1ccc(N2CCCN(c3ccccc3)C2=O)cc1 | inactive
O=C(O)c1ccc(N2CCN(c3ccccc3)C2=O)cc1 | inactive

Tested on: HL-60
Assay: Effective concentration required for induction of differentiation of HL-60 cells into mature granulocytes.( >10e-6= slight activity at 10e-6)
Type: functional
Details: Homo sapiens, read-out: ED50 (the source's name)

pEC50 | Structure (SMILES)
< 5.00 | CC1(C)CCC(C)(C)c2cc(NC(=O)Nc3ccc(C(=O)O)cc3)ccc21
